Broadly, the IC50 is the point on the concentration scale where inhibition reaches its midpoint.

The target in the experiment is SARS-CoV-2 main protease (M^pro) (Severe acute respiratory syndrome coronavirus 2, UniProt P0DTD1). The experiment can be described thus: Rapid-Fire MS Biochemical Assay measuring Mpro activity (5 nM Mpro). Particulars: Table 1B, Mpro inhibition, 5 μM substrate peptide, 120 min, read-out: Rapid-Fire Assay IC50.
Take `N#C[C@H]1CN(C2CC(C(F)(F)F)C2)C(=O)N1c1cncc2ccccc12` (mixture of isomers) [Compound 45, (R)-3-(isoquinolin-4-yl)-2-oxo-1-(3-(trifluoromethyl)cyclobutyl)imidazolidine-4-carbonitrile]: the IC50 was > 1000 nM.

With `COc1cc(C(F)(F)F)ccc1N1CC(C#N)N(c2cncc3ccccc23)C1=O` (racemic) [Compound 12, 3-(isoquinolin-4-yl)-1-(2-methoxy-4-(trifluoromethyl)phenyl)-2-oxoimidazolidine-4-carbonitrile], the IC50 lay in the range of 20 to 200 nM.

Consider `COc1ccc(C#N)cc1N1CC(C#N)N(c2cncc3ccccc23)C1=O` (racemic) [Compound 15, 1-(5-cyano-2-methoxyphenyl)-3-(isoquinolin-4-yl)-2-oxoimidazolidine-4-carbonitrile], for which the IC50 was < 20 nM.

`COc1cc(C#N)ccc1N1CC(C#N)N(c2cncc3ccccc23)C1=O` (racemic) [Compound 19, 1-(4-cyano-2-methoxyphenyl)-3-(isoquinolin-4-yl)-2-oxoimidazolidine-4-carbonitrile]: the IC50 fell in the range of 200 to 1000 nM.

On to `N#Cc1ccc(Cl)cc1N1CC(C#N)N(c2cncc3ccccc23)C1=O` (racemic) [Compound 20, 1-(5-chloro-2-cyanophenyl)-3-(isoquinolin-4-yl)-2-oxoimidazolidine-4-carbonitrile], for which the IC50 was < 20 nM.

As for `N#CC1CN(C2CC(F)(F)C2)C(=O)N1c1cncc2ccccc12` (racemic) [Compound 27, 1-(3,3-difluorocyclobutyl)-3-(isoquinolin-4-yl)-2-oxoimidazolidine-4-carbonitrile], the IC50 was in the range of 20 to 200 nM.

On to `N#CC1CN(C2CC(O)(C(F)(F)F)C2)C(=O)N1c1cncc2ccccc12` (racemic) [Compound 28, 1-(3-hydroxy-3-(trifluoromethyl)cyclobutyl)-3-(isoquinolin-4-yl)-2-oxoimidazolidine-4-carbonitrile], for which the IC50 was in the range of 20 to 200 nM.

Turning to `N#CC1CN(c2cccc(Cl)c2)C(=O)N1c1cncc2ccc(C(=O)O)cc12` (racemic) [Compound 33, 4-(3-(3-chlorophenyl)-5-cyano-2-oxoimidazolidin-1-yl)isoquinoline-6-carboxylic acid], the IC50 is < 20 nM.

On to `CS(=O)(=O)c1ccc2cncc(N3C(=O)N(c4cccc(Cl)c4)CC3C#N)c2c1` (racemic) [Compound 37, 1-(3-chlorophenyl)-3-(6-(methylsulfonyl)isoquinolin-4-yl)-2-oxoimidazolidine-4-carbonitrile], for which the IC50 was < 20 nM.

On to `N#CC1CN(c2ccnc(C(F)(F)F)c2)C(=O)N1c1cncc2ccccc12` (racemic) [Compound 57, 3-(isoquinolin-4-yl)-2-oxo-1-(2-(trifluoromethyl)pyridin-4-yl)imidazolidine-4-carbonitrile], for which the IC50 is < 20 nM.

Regarding `COc1cc(Cl)cnc1N1CC(C#N)N(c2cncc3ccccc23)C1=O` (racemic) [Compound 58, 1-(5-chloro-3-methoxypyridin-2-yl)-3-(isoquinolin-4-yl)-2-oxoimidazolidine-4-carbonitrile], the IC50 fell in the range of 200 to 1000 nM.

Turning to `N#Cc1cc(Cl)ccc1N1CC(C#N)N(c2cncc3ccccc23)C1=O` (racemic) [Compound 60, 1-(4-chloro-2-cyanophenyl)-3-(isoquinolin-4-yl)-2-oxoimidazolidine-4-carbonitrile], the IC50 was 20 to 200 nM.

As to `CC(C)n1cc(N2CC(C#N)N(c3cncc4ccccc34)C2=O)cn1` (racemic) [Compound 64, 1-(1-isopropyl-1H-pyrazol-4-yl)-3-(isoquinolin-4-yl)-2-oxoimidazolidine-4-carbonitrile], the IC50 is 20 to 200 nM.

On to `Cn1cc(N2CC(C#N)N(c3cncc4ccccc34)C2=O)cn1` (racemic) [Compound 65, 3-(isoquinolin-4-yl)-1-(1-methyl-1H-pyrazol-4-yl)-2-oxoimidazolidine-4-carbonitrile], for which the IC50 lay within 200 to 1000 nM.

Values taken from patent publication US20250092016A1, “COMPOUNDS AND COMPOSITIONS FOR THE TREATMENT OF CORONAVIRAL RELATED DISEASES” (priority 2021, published 2025).
